# Laboratory results reported in paper PMC10618743 (Cancer Discovery, 2023).
# Columns and labels:
# [1] = test system: pAKT (S473) in CAL148 cells; test: pAKT (S473) HTRF; format: cell-based; details: Homo sapiens, CAL-148; CAL148, H1047R + D350N; 1 hour; read-out: pAKT HTRF GMean IC50 (95% CI)
# Description: (§1) A 384-well phospho-AKT (S473) HTRF (Homogenous Time-Resolve Fluorescence; PerkinElmer, #64AKSPEH) assay was used for target engagement. Each well was seeded with cell numbers indicated in Supplementary Table S3 in a volume of 12.5 μL in complete, phenol red-free media and then treated for 1 hour at 37°C with 5% CO2 before reading on a PHERAstar plate reader.
# [2] = test system: pAKT (S473) in DETROIT562 cells; test: pAKT (S473) HTRF; format: cell-based; details: Homo sapiens, Detroit 562; DETROIT562, H1047R; 1 hour; read-out: pAKT HTRF GMean IC50 (95% CI)
# Description: as §1
# [3] = test system: pAKT (S473) in EFM19 cells; test: pAKT (S473) HTRF; format: cell-based; details: Homo sapiens, EFM-19; EFM19, H1047L; 1 hour; read-out: pAKT HTRF GMean IC50 (95% CI)
# Description: as §1
# [4] = test system: pAKT (S473) in OAW42 cells; test: pAKT (S473) HTRF; format: cell-based; details: Homo sapiens, OAW-42; OAW42, H1047L; 1 hour; read-out: pAKT HTRF GMean IC50 (95% CI)
# Description: as §1
# [5] = test system: pAKT (S473) in T47D cells; test: pAKT (S473) HTRF; format: cell-based; details: Homo sapiens, 1 h, read-out: pAKT HTRF GMean IC50 (95% CI)
# Description: as §1
# [6] = test system: insulin-mediated glucose uptake in primary human subcutaneous adipocytes; test: Human adipocyte 3H-2-deoxyglucose uptake; format: cell-based
# Description: Primary human subcutaneous adipocytes were treated with a test compound or vehicle for 1 hour followed by the addition of 10 nmol/L insulin and ^3H-2-deoxyglucose (Zen Bio Durham, assay #CA-25, Lot #SL0071). Cytochalasin B treatment controlled for nonspecific glucose uptake. Corrected counts per minute were determined using a scintillation counter.
# Plasma exposure in mice = format: in vivo, mouse
# [7] = test system: pAKT (S473) in CAL-33 tumors; test: CAL-33 tumor PK/PD, pAKT/AKT Western blot; format: in vivo, mouse; details: 50 mg/kg q.d.
# [8] = test system: glucose oxidation in tumor and skeletal muscle; test: [U-13C]-glucose metabolic profiling in CAL-33 tumor-bearing mice; format: in vivo, mouse; details: alpelisib 50 mg/kg; 30 minutes after [U-13C]-glucose
# [9] = test system: Detroit 562 HNSCC xenograft; test: Detroit 562 xenograft efficacy study; format: in vivo, mouse
# [10] = test system: GP2d colon cancer xenograft; test: GP2d xenograft efficacy study; format: in vivo, mouse
# [11] = test system: HCC1954 breast cancer xenograft; test: HCC1954 xenograft efficacy study; format: in vivo, mouse; details: Alpelisib 50 mg/kg QD, Day 28
# [12] = cited from earlier work
# [13] = patients; cited from earlier work
# [14] = STX-478 100 mg/kg q.d., alpelisib 50 mg/kg q.d.
smiles,measurement,setting,value
Cc1nc(NC(=O)N2CCC[C@H]2C(N)=O)sc1-c1ccnc(C(C)(C)C(F)(F)F)c1 [alpelisib],IC50,[1],268 nM
same,IC50,[2],125 nM
same,IC50,[3],43 nM
same,IC50,[4],82 nM
same,IC50,[5],58 nM
same,glucose uptake inhibition,[6]; 10 μmol/L,nearly complete inhibition
same,Emax,"[6]; Homo sapiens, Adipocyte, 10 nmol/L insulin, read-out: maximum effect (Emax) for glucose uptake inhibition",88%
same,mouse exposure over exposure of maximum approved human dose,Plasma exposure in mice; 50 mg/kg q.d. in mice,approximately 2 fold
same,AUC,"Plasma exposure in mice; mouse, plasma, oral, mice, 50 mg/kg q.d.",~75000 ng·h/mL
same,average pAKT suppression (treated/vehicle AUC1–12h),[7],66%
same,glucose oxidation in skeletal muscle,[8],reductions in glucose oxidation in the skeletal muscle
same,TGI (%),"[9]; Alpelisib 50 mg/kg QD, Day 22",96%
same,tumor regressions,[9]; [14],tumor regressions in five of the nine study animals
same,TGI (%),"[10]; Alpelisib 50 mg/kg QD, Day 28",79%
same,tumor regressions (waterfall plot),[10]; [14],no regression
same,TGI (%),[11],77%
same,exposure of the maximum approved human dose (AUC),[12],"~33,000 ng*h/mL"
same,rate of permanent discontinuations,[13],≤ 46%
same,rate of safety-related dose reduction,[13],up to 42%
